# According to patent publication EP4790066A1, “GLP-1R/GIPR/GCGR TRIPLE AGONIST ANALOGUE AND USE THEREOF” (Shenzhen Bay Laboratory, priority 2023, dated 2025):
# Assays:
# Format in all cases: cell-based
# GLP-1R [1] = molecular target: T1, GLP-1R (Homo sapiens, UniProt P43220); assay: CreLuc method (CRE-luciferase reporter), HEK293/pGM-CREB-L-Luc/GLP-1R pool; conditions: 6 h incubation, read-out: EC50 (pM) for each receptor GLP-1R
# T1 construct: expressed in transfected cells
# Summary of the method: (§1)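 Stable HEK293 pools co-expressing each receptor with a CRE-luciferase reporter were plated at 20,000 cells/well in freestyle medium and treated with compound dilution series for 6 h at 37 °C. Luminescence was read with ONE-GLO to derive EC50.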
# GIPR [2] = molecular target: T2, GIPR (Homo sapiens, UniProt P48546); assay: CreLuc method (CRE-luciferase reporter), HEK293/pGM-CREB-L-Luc/GIPR pool; conditions: 6 h incubation, read-out: EC50 (pM) for each receptor GIPR
# T2 construct: expressed in transfected cells
# T2 sequence (P48546 22-466): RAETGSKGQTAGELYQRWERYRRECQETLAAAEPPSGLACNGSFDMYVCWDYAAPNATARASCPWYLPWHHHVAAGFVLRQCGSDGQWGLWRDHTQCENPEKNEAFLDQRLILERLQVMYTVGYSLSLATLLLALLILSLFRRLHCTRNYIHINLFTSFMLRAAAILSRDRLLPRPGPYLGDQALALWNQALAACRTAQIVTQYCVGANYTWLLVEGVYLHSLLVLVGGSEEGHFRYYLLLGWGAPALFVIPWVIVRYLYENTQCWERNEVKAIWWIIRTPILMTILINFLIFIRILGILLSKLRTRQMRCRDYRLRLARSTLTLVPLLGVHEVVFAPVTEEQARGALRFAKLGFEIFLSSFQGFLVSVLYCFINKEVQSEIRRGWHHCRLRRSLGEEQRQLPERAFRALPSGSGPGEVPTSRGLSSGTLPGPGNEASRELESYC
# Summary of the method: as §1
# GCGR [3] = molecular target: T3, GCGR (Homo sapiens, UniProt P47871); assay: cAMP method (HTRF cAMP detection kit), HEK293/pGM-CREB-L-Luc/GCG pool; conditions: read-out: EC50 (pM) for each receptor GCGR
# T3 construct: expressed in transfected cells
# Experimental: (§2) 2. Insulinotropic analogues can bind to target receptors on the cell membrane, activate the receptors, and induce release. The activity of the test substance can be determined using the HTRF method with a cAMP detection kit. Therefore, the cAMP method can be used to detect the target peptide derivatives (or polypeptide derivatives, i.e., TG1-TG86) prepared in Example 1 and Example 2. […] The test cell line was selected, treated with cAMP-specific trypsin for digestion. 3 mL of serum-free DMEM culture medium was added, and the cells were pipetted, resuspended, and counted. 5 µL of IBMX (prepared with serum-free DMEM medium, 0.5 mM) and test cells (5 µL/7500 cells/well) were added in a 384-well plate sequentially. The plate was incubated at 37°C under 5% CO2 for 30 min, followed by the addition of cAMP-d2 (5 µL, 1x) and Anti-cAMP-Cryptate (5 µL, 1x). The mixture was kept at room temperature for 1 h, after which the HTRF value was measured using a chemiluminescent microplate reader, and the determination result was recorded. […] Table 4: EC50 values for target peptide derivatives
# GLP-1R [4] = molecular target: T1, GLP-1R; assay: cAMP method (HTRF cAMP detection kit), HEK293/pGM-CREB-L-Luc/GLP-1 pool; conditions: read-out: EC50 (pM) for each receptor GLP-1R
# Experimental: as §2
# GCGR [5] = molecular target: T3, GCGR; assay: CreLuc method (CRE-luciferase reporter), 293HEK/pGM-CREB-L-Luc/GCGR pool; conditions: 6 h incubation, read-out: EC50 (pM) for each receptor GCGR
# Summary of the method: as §1
# GIPR [6] = molecular target: T2, GIPR; assay: cAMP method (HTRF cAMP detection kit), HEK293/pGM-CREB-L-Luc/GIP pool; conditions: read-out: EC50 (pM) for each receptor GIPR
# Experimental: as §2
# T3 sequence (P47871 26-477, species assumed): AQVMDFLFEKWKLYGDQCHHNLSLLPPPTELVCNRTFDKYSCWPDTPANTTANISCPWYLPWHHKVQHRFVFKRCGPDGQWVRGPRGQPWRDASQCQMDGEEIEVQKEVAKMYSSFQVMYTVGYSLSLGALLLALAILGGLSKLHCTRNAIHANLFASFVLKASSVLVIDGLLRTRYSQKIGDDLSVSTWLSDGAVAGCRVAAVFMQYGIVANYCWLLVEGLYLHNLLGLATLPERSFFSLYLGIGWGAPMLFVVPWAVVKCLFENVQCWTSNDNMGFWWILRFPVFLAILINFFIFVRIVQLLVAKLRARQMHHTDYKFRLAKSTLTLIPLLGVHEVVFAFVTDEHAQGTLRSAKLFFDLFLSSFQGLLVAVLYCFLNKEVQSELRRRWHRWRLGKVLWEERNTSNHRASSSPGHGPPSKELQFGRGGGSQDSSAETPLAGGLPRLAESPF
# T1 sequence (P43220 24-463, species assumed): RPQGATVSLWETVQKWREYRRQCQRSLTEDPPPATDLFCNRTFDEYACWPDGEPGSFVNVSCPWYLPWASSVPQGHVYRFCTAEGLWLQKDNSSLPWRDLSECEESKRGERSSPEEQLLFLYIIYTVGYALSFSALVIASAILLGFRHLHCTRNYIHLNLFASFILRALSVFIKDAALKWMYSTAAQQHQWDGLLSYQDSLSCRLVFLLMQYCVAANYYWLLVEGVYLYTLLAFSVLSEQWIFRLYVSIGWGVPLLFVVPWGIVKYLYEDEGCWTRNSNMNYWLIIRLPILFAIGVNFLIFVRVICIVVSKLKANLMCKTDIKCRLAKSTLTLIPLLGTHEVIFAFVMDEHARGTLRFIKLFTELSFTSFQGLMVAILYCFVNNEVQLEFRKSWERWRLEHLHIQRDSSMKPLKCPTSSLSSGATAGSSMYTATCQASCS
Compound,EC50 (GLP-1R [1]) [pM],EC50 (GIPR [2]) [pM],EC50 (GCGR [3]) [pM],EC50 (GLP-1R [4]) [pM],EC50 (GCGR [5]) [pM],EC50 (GIPR [6]) [pM]
CC(C)C[C@H](NC(=O)[C@H](CC(C)C)NC(=O)[C@H](Cc1c[nH]c2ccccc12)NC(=O)[C@@H]1CSCC(=O)NCCN(C(=O)CCC(=O)NCCOCCOCC(=O)NCCOCCOCC(=O)NCCCC[C@H](NC(=O)CCCCCCCCCCCCCCCCCCC(=O)O)C(=O)O)CCNC(=O)CSC[C@H](NC(=O)[C@H](CCCCN)NC(=O)[C@H](CC(=O)O)NC(=O)[C@H](CC(C)C)NC(=O)[C@H](Cc2ccc(O)cc2)NC(=O)[C@H](CCCCN)NC(=O)[C@H](CO)NC(=O)[C@H](Cc2ccc(O)cc2)NC(=O)[C@H](CC(=O)O)NC(=O)[C@H](CO)NC(=O)[C@@H](NC(=O)[C@H](Cc2ccccc2)NC(=O)[C@@H](NC(=O)CNC(=O)[C@H](Cc2c[nH]cn2)NC(=O)C(C)(C)NC(=O)[C@@H](N)Cc2c[nH]cn2)[C@@H](C)O)[C@@H](C)O)C(=O)N[C@@H](Cc2ccc(O)cc2)C(=O)N[C@@H](C)C(=O)N[C@@H](CCC(N)=O)C(=O)N[C@@H](CC(=O)O)C(=O)N[C@@H](Cc2ccccc2)C(=O)N[C@@H](C(C)C)C(=O)N1)C(=O)N[C@@H](CCC(=O)O)C(=O)NCC(=O)NCC(=O)N1CCC[C@H]1C(=O)N[C@@H](CO)C(=O)N[C@@H](CO)C(=O)NCC(=O)N[C@@H](C)C(=O)N1CCC[C@H]1C(=O)N1CCC[C@H]1C(=O)N1CCC[C@H]1C(=O)N[C@@H](CO)C(N)=O [TG10],359,368,8.5,2.5,149,9.7
CC[C@H](C)[C@@H]1NC(=O)[C@H](Cc2ccccc2)NC(=O)[C@H](C)NC(=O)C(C)(C)NC(=O)[C@H](CCC(N)=O)NC(=O)[C@H](C)NC(=O)[C@@H](NC(=O)[C@H](CCCCN)NC(=O)[C@H](CC(=O)O)NC(=O)[C@H](CC(C)C)NC(=O)[C@H](CC(C)C)NC(=O)[C@@H](NC(=O)[C@H](CO)NC(=O)[C@H](Cc2ccc(O)cc2)NC(=O)[C@H](CC(=O)O)NC(=O)[C@H](CO)NC(=O)[C@@H](NC(=O)[C@H](Cc2ccccc2)NC(=O)[C@@H](NC(=O)CNC(=O)[C@H](CCC(N)=O)NC(=O)C(C)(C)NC(=O)[C@@H](N)Cc2ccc(O)cc2)[C@@H](C)O)[C@@H](C)O)[C@@H](C)CC)CSCC(=O)NCCN(C(=O)CCC(=O)NCCOCCOCC(=O)NCCOCCOCC(=O)NCCCC[C@H](NC(=O)CCCCCCCCCCCCCCCCCCC(=O)O)C(=O)O)CCNC(=O)CSC[C@@H](C(=O)N[C@@H](Cc2ccc(O)cc2)C(=O)N[C@@H](CC(C)C)C(=O)N[C@@H](CC(C)C)C(=O)N[C@@H](CCC(=O)O)C(=O)NCC(=O)NCC(=O)N2CCC[C@H]2C(=O)N[C@@H](CO)C(=O)N[C@@H](CO)C(=O)NCC(=O)N[C@@H](C)C(=O)N2CCC[C@H]2C(=O)N2CCC[C@H]2C(=O)N2CCC[C@H]2C(=O)N[C@@H](CO)C(N)=O)NC1=O [TG12],205,66.6,40.3,5.8,325,12.1
CC[C@H](C)[C@@H]1NC(=O)[C@H](Cc2ccccc2)NC(=O)[C@@H](NC(=O)C(C)(C)NC(=O)[C@H](CCC(N)=O)NC(=O)[C@H](C)NC(=O)[C@H](CCCCNC(C)=O)NC(=O)[C@H](CCCCN)NC(=O)[C@H](CC(=O)O)NC(=O)[C@H](CC(C)C)NC(=O)[C@](C)(CC(C)C)NC(=O)[C@@H](NC(=O)[C@H](CO)NC(=O)[C@H](Cc2ccc(O)cc2)NC(=O)[C@H](CC(=O)O)NC(=O)[C@H](CO)NC(=O)[C@@H](NC(=O)[C@H](Cc2ccccc2)NC(=O)[C@@H](NC(=O)CNC(=O)[C@H](CCC(N)=O)NC(=O)C(C)(C)NC(=O)[C@@H](N)Cc2ccc(O)cc2)[C@@H](C)O)[C@@H](C)O)[C@@H](C)CC)CSCC(=O)NCCN(C(=O)CCC(=O)NCCOCCOCC(=O)NCCOCCOCC(=O)NCCCC[C@H](NC(=O)CCCCCCCCCCCCCCCCCCC(=O)O)C(=O)O)CCNC(=O)CSC[C@@H](C(=O)NCC(=O)NCC(=O)N2CCC[C@H]2C(=O)N[C@@H](CO)C(=O)N[C@@H](CO)C(=O)NCC(=O)N[C@@H](C)C(=O)N2CCC[C@H]2C(=O)N2CCC[C@H]2C(=O)N2CCC[C@H]2C(=O)N[C@@H](CO)C(N)=O)NC(=O)[C@H](CC(C)C)NC(=O)[C@H](CC(C)C)NC(=O)[C@H](Cc2ccc(O)cc2)NC(=O)[C@H](CCC(=O)O)NC1=O [TG15],116,85.6,40.3,1.9,329,3.3
CC[C@H](C)[C@@H]1NC(=O)[C@H](Cc2ccccc2)NC(=O)[C@@H](NC(=O)C(C)(C)NC(=O)[C@H](CCC(N)=O)NC(=O)[C@H](C)NC(=O)[C@H](CCCCNC(C)=O)NC(=O)[C@H](CCCCN)NC(=O)[C@H](CC(=O)O)NC(=O)[C@H](CC(C)C)NC(=O)[C@](C)(CC(C)C)NC(=O)[C@@H](NC(=O)[C@H](CO)NC(=O)[C@H](Cc2ccc(O)cc2)NC(=O)[C@H](CC(=O)O)NC(=O)[C@H](CO)NC(=O)[C@@H](NC(=O)[C@H](Cc2ccccc2)NC(=O)[C@@H](NC(=O)CNC(=O)[C@H](CCC(N)=O)NC(=O)C(C)(C)NC(=O)[C@@H](N)Cc2c[nH]cn2)[C@@H](C)O)[C@@H](C)O)[C@@H](C)CC)CSCC(=O)NCCN(C(=O)CCC(=O)NCCOCCOCC(=O)NCCOCCOCC(=O)NCCCC[C@H](NC(=O)CCCCCCCCCCCCCCCCCCC(=O)O)C(=O)O)CCNC(=O)CSC[C@@H](C(=O)NCC(=O)NCC(=O)N2CCC[C@H]2C(=O)N[C@@H](CO)C(=O)N[C@@H](CO)C(=O)NCC(=O)N[C@@H](C)C(=O)N2CCC[C@H]2C(=O)N2CCC[C@H]2C(=O)N2CCC[C@H]2C(=O)N[C@@H](CO)C(N)=O)NC(=O)[C@H](CC(C)C)NC(=O)[C@H](CC(C)C)NC(=O)[C@H](Cc2ccc(O)cc2)NC(=O)[C@H](CCC(=O)O)NC1=O [TG18],66.9,25.9,94.4,1.4,802,1.7
CC[C@H](C)[C@@H]1NC(=O)[C@H](Cc2ccccc2)NC(=O)[C@@H](NC(=O)C(C)(C)NC(=O)[C@H](CCC(N)=O)NC(=O)[C@H](C)NC(=O)[C@H](CCC(N)=O)NC(=O)[C@H](CCCCN)NC(=O)[C@H](CC(=O)O)NC(=O)[C@H](CC(C)C)NC(=O)[C@](C)(CC(C)C)NC(=O)[C@@H](NC(=O)[C@H](CO)NC(=O)[C@H](Cc2ccc(O)cc2)NC(=O)[C@H](CC(=O)O)NC(=O)[C@H](CO)NC(=O)[C@@H](NC(=O)[C@H](Cc2ccccc2)NC(=O)[C@@H](NC(=O)CNC(=O)[C@H](CCC(N)=O)NC(=O)C(C)(C)NC(=O)[C@@H](N)Cc2ccc(O)cc2)[C@@H](C)O)[C@@H](C)O)[C@@H](C)CC)CSCC(=O)NCCN(C(=O)CCC(=O)NCCOCCOCC(=O)NCCOCCOCC(=O)NCCCC[C@H](NC(=O)CCCCCCCCCCCCCCCCCCC(=O)O)C(=O)O)CCNC(=O)CSC[C@@H](C(=O)NCC(=O)NCC(=O)N2CCC[C@H]2C(=O)N[C@@H](CO)C(=O)N[C@@H](CO)C(=O)NCC(=O)N[C@@H](C)C(=O)N2CCC[C@H]2C(=O)N2CCC[C@H]2C(=O)N2CCC[C@H]2C(=O)N[C@@H](CO)C(N)=O)NC(=O)[C@H](CC(C)C)NC(=O)[C@H](CC(C)C)NC(=O)[C@H](Cc2ccc(O)cc2)NC(=O)[C@H](CCC(=O)O)NC1=O [TG30],47.8,45.3,28.7,2.5,347,3.2
